According to patent US12187713B2, “Immunomodulators, compositions and methods thereof” (Betta Pharmaceuticals Co., Ltd, priority 2019, dated 2025):

How the values were obtained:
PD-1/PD-L1 = PD-1/PD-L1 (Homo sapiens (Human), UniProt Q9NZQ7); experiment: PD-1/PD-L1 Binding Assay (Alphascreen)
How it was run: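 PD-1/PD-L1 binding detected by anti-6×His acceptor and streptavidin donor beads after 120 min in the dark at 25 °C. Beforehand, the two proteins were incubated 15 min at 25 °C with inhibitor at 0.015–300 nM (1% DMSO). IC50 comes from a log concentration–response curve.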

[1] = Pharmacokinetic Assay, single oral dose 5 mg/kg (Table 12); type: in vivo; details: mouse, plasma concentration, C57 female mice, single oral dose 5 mg/kg
Method: Adult C57 female mice were received to single-dose of the test compounds with 15% DMSO, 10% Kolliphor^@HS 15 and 75% saline as excipients, the mice (n=3) were giving oral administration (intragastric administration) with the compounds at a dose of 5 mg/kg. Time of blood collection: 30 min, 2 h, 4 h. approximately 0.1 mL of whole blood was collected from retro-orbital venous plexus, and placed into tubes that contained K2-EDTA as an anticoagulant. The whole blood were centrifuged at 4° C. and 4000 rpm for 10 min. The plasma was transferred into centrifuge tubes, and stored at −20° C. until being analyzed. Concentrations of test compounds in the plasma samples were analyzed with liquid chromatography-tandem mass spectrometry (LC-MS/MS). Plasma concentration-time data of individual animals was analyzed using Microsoft Excel 2010.

Chain of PD-1/PD-L1 (Q9NZQ7 19-238): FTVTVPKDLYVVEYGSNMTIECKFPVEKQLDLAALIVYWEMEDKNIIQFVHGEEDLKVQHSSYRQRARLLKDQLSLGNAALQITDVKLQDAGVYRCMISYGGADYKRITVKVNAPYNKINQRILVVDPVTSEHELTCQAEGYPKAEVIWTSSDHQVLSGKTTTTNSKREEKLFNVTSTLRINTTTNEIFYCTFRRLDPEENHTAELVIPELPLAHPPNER

IC50 (PD-1/PD-L1; numeric values) | concentration at 0.5 h [1] | concentration at 2 h [1] | concentration at 4 h [1] | IC50 (PD-1/PD-L1; range symbols) | SMILES
– | 0.211 µg/mL | 0.243 µg/mL | 0.171 µg/mL | 0.1 to 5 nM | Cc1c(-c2nc3cc(CN4CCC[C@H]4C(=O)O)c(OC(F)F)cc3o2)cccc1-c1cccc(-c2nc3cc(CN4CCC(C#N)C4)cc(C#N)c3o2)c1C (stereo partly drawn) [Example 142, ((2-(3′-(7-cyano-5-((3-cyanopyrrolidin-1-yl)methyl)benzo[d]oxazol-2-yl)-2,2′-dimethyl-[1,1′-biphenyl]-3-yl)-6-(difluoromethoxy)benzo[d]oxazol-5-yl)methyl)-L-proline]
– | 0.277 µg/mL | 0.67 µg/mL | 0.441 µg/mL | 5 to 50 nM | Cc1c(-c2nc3cc(CN4CCC[C@H]4C(=O)O)c(OC(F)F)cc3o2)cccc1-c1cccc(-c2nc3cc(CN4CCC(F)C4)cc(C#N)c3o2)c1C (stereo partly drawn) [Example 162, ((2-(3′-(7-cyano-5-((3-fluoropyrrolidin-1-yl)methyl)benzo[d]oxazol-2-yl)-2,2′-dimethyl-[1,1′-biphenyl]-3-yl)-6-(difluoromethoxy)benzo[d]oxazol-5-yl)methyl)-L-proline]
– | 0.376 µg/mL | 0.404 µg/mL | 0.219 µg/mL | 0.1 to 5 nM | Cc1c(-c2nc3cc(CN4CCC[C@H]4C(=O)O)c(OC(F)F)cc3o2)cccc1-c1cccc(-c2nc3cc(CN4CC[C@@H](C#N)C4)cc(C#N)c3o2)c1C [Example 165, ((2-(3′-(7-cyano-5-(((R)-3-cyanopyrrolidin-1-yl)methyl)benzo[d]oxazol-2-yl)-2,2′-dimethyl-[1,1′-biphenyl]-3-yl)-6-(difluoromethoxy)benzo[d]oxazol-5-yl)methyl)-L-proline]
– | 0.52 µg/mL | 1.17 µg/mL | 1.33 µg/mL | 5 to 50 nM | Cc1c(-c2nc3c(o2)CCN(CCCC(F)(F)F)C3)cccc1-c1cccc(-c2nc3cc(CN4CCC[C@H]4C(=O)O)c(OC(F)F)cc3o2)c1C [Example 191, ((6-(difluoromethoxy)-2-(2,2′-dimethyl-3′-(5-(4,4,4-trifluorobutyl)-4,5,6,7-tetrahydrooxazolo[4,5-c]pyridin-2-yl)-[1,1′-biphenyl]-3-yl)benzo[d]oxazol-5-yl)methyl)proline]
– | 0.469 µg/mL | 0.44 µg/mL | 0.268 µg/mL | 5 to 50 nM | Cc1c(-c2nc3c(o2)CCN(CC2CCO2)C3)cccc1-c1cccc(-c2nc3cc(CN4CCC[C@H]4C(=O)O)c(OC(F)F)cc3o2)c1C (stereo partly shown) [Example 192, ((6-(difluoromethoxy)-2-(2,2′-dimethyl-3′-(5-(oxetan-2-ylmethyl)-4,5,6,7-tetrahydrooxazolo[4,5-c]pyridin-2-yl)-[1,1′-biphenyl]-3-yl)benzo[d]oxazol-5-yl)methyl)proline]
– | 0.256 µg/mL | 0.255 µg/mL | 0.125 µg/mL | 5 to 50 nM | Cc1c(-c2nc3c(o2)CCN(CC#N)C3)cccc1-c1cccc(-c2nc3cc(CN4CCC[C@H]4C(=O)O)c(OC(F)F)cc3o2)c1C [Example 195, ((2-(3′-(5-(cyanomethyl)-4,5,6,7-tetrahydrooxazolo[4,5-c]pyridin-2-yl)-2,2′-dimethyl-[1,1′-biphenyl]-3-yl)-6-(difluoromethoxy)benzo[d]oxazol-5-yl)methyl)proline]

Second part, the compound before the results:

SMILES | IC50 (PD-1/PD-L1; numeric values) | concentration at 0.5 h [1] | concentration at 2 h [1] | concentration at 4 h [1] | IC50 (PD-1/PD-L1; range symbols)
Cc1c(-c2nc3cc(CN4CCC[C@H]4C(=O)O)c(OC(F)F)cc3o2)cccc1-c1cccc(-c2nc3cc(CN4CCCC4)cc(C#N)c3o2)c1C [Example 127, ((2-(3′-(7-cyano-5-(pyrrolidin-1-ylmethyl)benzo[d]oxazol-2-yl)-2,2′-dimethyl-[1,1′-biphenyl]-3-yl)-6-(difluoromethoxy)benzo[d]oxazol-5-yl)methyl)-L-proline] | 3.1 nM | 0.0613 µg/mL | 0.253 µg/mL | 0.216 µg/mL | –
Cc1c(-c2nc3cc(CN4CCC[C@H]4C(=O)O)c(OC(F)F)cc3o2)cccc1-c1cccc(-c2nc3cc(CN4CC[C@@H](C)C4)cc(C#N)c3o2)c1C [Example 131, ((2-(3′-(7-cyano-5-(((R)-3-methylpyrrolidin-1-yl)methyl)benzo[d]oxazol-2-yl)-2,2′-dimethyl-[1,1′-biphenyl]-3-yl)-6-(difluoromethoxy)benzo[d]oxazol-5-yl)methyl)-L-proline] | 2.3 nM | 0.108 µg/mL | 0.301 µg/mL | 0.47 µg/mL | –
Cc1c(-c2nc3cc(CN4CCC[C@H]4C(=O)O)c(OC(F)F)cc3o2)cccc1-c1cccc(-c2nc3cc(CN(C)CC#N)cc(C#N)c3o2)c1C [Example 136, ((2-(3′-(7-cyano-5-(((cyanomethyl) (methyl)amino)methyl)benzo [d]oxazol-2-yl)-2,2′-dimethyl-[1,1′-biphenyl]-3-yl)-6-(difluoromethoxy)benzo[d]oxazol-5-yl)methyl)-L-proline] | – | 0.673 µg/mL | 0.736 µg/mL | 0.545 µg/mL | 0.1 to 5 nM
C#CC1(O)CN(Cc2cc(C#N)c3oc(-c4cccc(-c5cccc(-c6nc7cc(CN8CCC[C@H]8C(=O)O)c(OC(F)F)cc7o6)c5C)c4C)nc3c2)C1 [Example 144, ((2-(3′-(7-cyano-5-((3-ethynyl-3-hydroxyazetidin-1-yl)methyl)benzo[d]oxazol-2-yl)-2,2′-dimethyl-[1,1′-biphenyl]-3-yl)-6-(difluoromethoxy)benzo[d]oxazol-5-yl)methyl)-L-proline] | – | 0.243 µg/mL | 0.386 µg/mL | 0.222 µg/mL | 0.1 to 5 nM
Cc1c(-c2nc3cc(CN4CCC[C@H]4C(=O)O)c(OC(F)F)cc3o2)cccc1-c1cccc(-c2nc3cc(CN4CC(F)C(F)C4)cc(C#N)c3o2)c1C (stereo partly drawn) [Example 164, ((2-(3′-(7-cyano-5-((3,4-difluoropyrrolidin-1-yl)methyl)benzo [d]oxazol-2-yl)-2,2′-dimethyl-[1,1′-biphenyl]-3-yl)-6-(difluoromethoxy)benzo[d]oxazol-5-yl)methyl)-L-proline] | – | 0.294 µg/mL | 0.877 µg/mL | 0.853 µg/mL | 5 to 50 nM
CCS(=O)(=O)N1CCc2oc(-c3cccc(-c4cccc(-c5nc6cc(CN7CCC[C@H]7C(=O)O)c(OC(F)F)cc6o5)c4C)c3C)nc2C1 [Example 197, ((6-(difluoromethoxy)-2-(3′-(5-(ethylsulfonyl)-4,5,6,7-tetrahydrooxazolo[4,5-c]pyridin-2-yl)-2,2′-dimethyl-[1,1′-biphenyl]-3-yl)benzo[d]oxazol-5-yl)methyl)proline] | – | 0.527 µg/mL | 0.741 µg/mL | 0.369 µg/mL | 5 to 50 nM
Cc1c(-c2nc3c(o2)CCN(CCC(F)(F)F)C3)cccc1-c1cccc(-c2nc3cc(CN4CCC[C@H]4C(=O)O)c(OC(F)F)cc3o2)c1C [Example 198, ((6-(difluoromethoxy)-2-(2,2′-dimethyl-3′-(5-(3,3,3-trifluoropropyl)-4,5,6,7-tetrahydrooxazolo[4,5-c]pyridin-2-yl)-[1,1′-biphenyl]-3-yl)benzo[d]oxazol-5-yl)methyl)proline] | – | 0.674 µg/mL | 1.44 µg/mL | 1.1 µg/mL | > 50 nM
